For this data set the following is noted: Crystal; visual observation.

± gives the expanded uncertainty stated by the source.

Turning to `O=C(O)[C@@H]1Cc2ccccc2N1` [(S)-indoline-2-carboxylic acid], the Normal melting temperature worked out at 177.00 ± 0.5 °C.

For the origin of these results see the NIST ThermoML archive (doi:10.1021/je400188h).
